# Where “and” joins values, the source holds several entries; their conditions need not be identical. Equal values may be shown once.
# What was measured:
# ALP [1] = target: T1, ALP (Bos taurus, UniProt P19111); test: Enzyme kinetics of P-CyPt towards ALP (Lineweaver-Burk); assay type: biochemical; settings: ALP (20 U/L)
# T1 construct: Alkaline phosphatase from bovine; purchased Sigma-Aldrich; host or cells: bovine intestinal mucosa (tissue-derived)
# ALP [2] = test: as above; assay type: biochemical; settings: Supplementary Fig. 5b; for 1/v, mean: mean of 3 samples
# ALP [3] = target: T1, ALP; test: Dephosphorylated efficacy of P-CyPt towards varying concentrations of ALP (NIR fluorescence); assay type: biochemical
# s.c. HeLa tumors [4] = test: NIR FL imaging of s.c. HeLa tumors in vivo; set-up: species or system mice; settings: i.v. 100 μM, 200 μL
# Protocol: (§1) (100 μM, in 200 μL saline). Whole body FL images of mice prior to (pre) and at 1 h, 2 h, 4 h, 8 h post injection of P-CyPt or […] acquired on the IVIS Lumina XR III imaging system, using a 660 nm excitation filter and a 750 ± 50 nm emission filter. Each experiment was conducted in three mice. The FL intensities were quantified by the region of interest (ROI) measurement using Living Image Software (4.5.2, PerkinElmer, MA, U.S.A). […] (500 μM, in 200 μL saline). The PA images of the s.c. HeLa tumors in mice prior to (pre), and at 1, 2, 4 h post injection were captured on the Vevo 2100 LAZR system (FUJIFILM VisualSonics), with excitation at 700 and 750 nm. The PA intensities were quantified by the equipped software.
# s.c. HeLa tumors [5] = test: PA imaging of s.c. HeLa tumors in vivo; set-up: species or system mice; settings: i.v., 2 h post-injection
# Protocol: as §1
# [6] = tested on: orthotopic HepG2/Luc liver tumors; test: NIR FL imaging of orthotopic HepG2/Luc liver tumors in vivo; set-up: species or system mice
# Protocol: as §1
# T1 sequence (P19111 20-533): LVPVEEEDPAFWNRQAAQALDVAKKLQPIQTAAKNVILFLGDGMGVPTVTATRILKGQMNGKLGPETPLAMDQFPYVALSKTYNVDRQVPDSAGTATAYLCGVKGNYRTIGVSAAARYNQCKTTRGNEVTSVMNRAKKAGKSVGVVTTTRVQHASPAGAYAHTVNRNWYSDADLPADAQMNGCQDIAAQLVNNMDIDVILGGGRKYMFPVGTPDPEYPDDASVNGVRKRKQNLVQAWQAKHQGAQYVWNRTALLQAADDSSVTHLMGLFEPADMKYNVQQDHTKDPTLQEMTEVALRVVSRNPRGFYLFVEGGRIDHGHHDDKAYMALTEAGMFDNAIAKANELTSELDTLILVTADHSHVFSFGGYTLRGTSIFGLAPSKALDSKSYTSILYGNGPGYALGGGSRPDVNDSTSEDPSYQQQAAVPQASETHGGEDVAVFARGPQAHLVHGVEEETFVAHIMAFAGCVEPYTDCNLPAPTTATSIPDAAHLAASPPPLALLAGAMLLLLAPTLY
smiles,measurement,setting,value
CC1(C)C(/C=C/C2=C3Oc4cc(OP(=O)(O)O)c(Cl)cc4C=C3CCC2)=[N+](CCCNC(=O)[C@@H](Cc2ccccc2)NC(=O)[C@@H](Cc2ccccc2)NC(=O)CCC(=O)[O][Pt]([NH2])([NH2])([OH])([Cl])[Cl])c2ccccc21 [P-CyPt],Vmax,ALP [1],0.55 µM/min
same,Km,ALP [1]; P-CyPt 0.5-5.0 μM,14 µM
same,"1/v, single samples (sample-1 to sample-3)",ALP [2]; 1/S [μM] 0.2,7.131 min/µM and 6.758 min/µM and 6.78 min/µM
same,"1/v, mean",ALP [2]; 1/S [μM] 0.2,6.889 min/µM
same,"1/v, single samples (sample-1 to sample-3)",ALP [2]; 1/S [μM] 0.25,8.023 min/µM and 8.58 min/µM and 6.977 min/µM
same,"1/v, mean",ALP [2]; 1/S [μM] 0.25,7.860 min/µM
same,"1/v, single samples (sample-1 to sample-3)",ALP [2]; 1/S [μM] 0.333333,10.0959 min/µM and 10.7285 min/µM and 10.3072 min/µM
same,"1/v, mean",ALP [2]; 1/S [μM] 0.333333,10.377 min/µM
same,"1/v, single samples (sample-1 to sample-3)",ALP [2]; 1/S [μM] 0.5,12.1342 min/µM and 13.921 min/µM and 15.7076 min/µM
same,"1/v, mean",ALP [2]; 1/S [μM] 0.5,13.921 min/µM
same,"1/v, single samples (sample-1 to sample-3)",ALP [2]; 1/S [μM] 1,22.8038 min/µM and 25.6597 min/µM and 28.5158 min/µM
same,"1/v, mean",ALP [2]; 1/S [μM] 1,25.660 min/µM
same,"1/v, single samples (sample-1 to sample-3)",ALP [2]; 1/S [μM] 2,49.1562 min/µM and 54.4739 min/µM and 57.4911 min/µM
same,"1/v, mean",ALP [2]; 1/S [μM] 2,53.707 min/µM
same,Normalized FL intensity,"ALP [3]; ALP 5 U/L, 10 min, mean of 3 samples",1.71
same,Normalized FL intensity,"ALP [3]; ALP 5 U/L, 10 min, single samples",1.648 and 1.73 and 1.752
same,Normalized FL intensity,"ALP [3]; ALP 5 U/L, 12 min, mean of 3 samples",1.864
same,Normalized FL intensity,"ALP [3]; ALP 5 U/L, 12 min, single samples",1.757 and 1.865 and 1.97
same,Normalized FL intensity,"ALP [3]; ALP 5 U/L, 14 min, mean of 3 samples",1.881
same,Normalized FL intensity,"ALP [3]; ALP 5 U/L, 14 min, single samples",1.813 and 1.9087 and 1.922
same,Normalized FL intensity,"ALP [3]; ALP 10 U/L, 10 min, mean of 3 samples",2.116
same,Normalized FL intensity,"ALP [3]; ALP 10 U/L, 10 min, single samples",2.078 and 2.183 and 2.087
same,Normalized FL intensity,"ALP [3]; ALP 10 U/L, 12 min, mean of 3 samples",2.286
same,Normalized FL intensity,"ALP [3]; ALP 10 U/L, 12 min, single samples",2.204 and 2.296 and 2.357
same,Normalized FL intensity,"ALP [3]; ALP 10 U/L, 14 min, mean of 3 samples",2.562
same,Normalized FL intensity,"ALP [3]; ALP 10 U/L, 14 min, single samples",2.47 and 2.6 and 2.617
same,Normalized FL intensity,"ALP [3]; ALP 10 U/L, 16 min, mean of 3 samples",2.829
same,Normalized FL intensity,"ALP [3]; ALP 10 U/L, 16 min, single samples",2.713 and 2.865 and 2.9087
same,Normalized FL intensity,"ALP [3]; ALP 20 U/L, 10 min, mean of 3 samples",2.617
same,Normalized FL intensity,"ALP [3]; ALP 20 U/L, 10 min, single samples",2.53 and 2.596 and 2.726
same,Normalized FL intensity,"ALP [3]; ALP 20 U/L, 12 min, mean of 3 samples",2.996
same,Normalized FL intensity,"ALP [3]; ALP 20 U/L, 12 min, single samples",2.926 and 2.987 and 3.074
same,Normalized FL intensity,"ALP [3]; ALP 20 U/L, 14 min, mean of 3 samples",3.404
same,Normalized FL intensity,"ALP [3]; ALP 20 U/L, 14 min, single samples",3.322 and 3.383 and 3.5087
same,Normalized FL intensity,"ALP [3]; ALP 20 U/L, 16 min, mean of 3 samples",3.783
same,Normalized FL intensity,"ALP [3]; ALP 20 U/L, 16 min, single samples",3.7 and 3.73 and 3.917
same,Normalized FL intensity,"ALP [3]; ALP 50 U/L, 10 min, mean of 3 samples",3.187
same,Normalized FL intensity,"ALP [3]; ALP 50 U/L, 10 min, single samples",3.135 and 3.157 and 3.27
same,Normalized FL intensity,"ALP [3]; ALP 50 U/L, 12 min, mean of 3 samples",3.6029
same,Normalized FL intensity,"ALP [3]; ALP 50 U/L, 12 min, single samples",3.483 and 3.583 and 3.743
same,Normalized FL intensity,"ALP [3]; ALP 50 U/L, 14 min, mean of 3 samples",4.096
same,Normalized FL intensity,"ALP [3]; ALP 50 U/L, 14 min, single samples",3.9913 and 4.022 and 4.274
same,Normalized FL intensity,"ALP [3]; ALP 50 U/L, 16 min, mean of 3 samples",4.5913
same,Normalized FL intensity,"ALP [3]; ALP 50 U/L, 16 min, single samples",4.43 and 4.465 and 4.878
same,Normalized FL intensity,"ALP [3]; ALP 100 U/L, 10 min, mean of 3 samples",4.5971
same,Normalized FL intensity,"ALP [3]; ALP 100 U/L, 10 min, single samples",4.522 and 4.557 and 4.713
same,Normalized FL intensity,"ALP [3]; ALP 100 U/L, 12 min, mean of 3 samples",5.171
same,Normalized FL intensity,"ALP [3]; ALP 100 U/L, 12 min, single samples",4.861 and 5.296 and 5.357
same,Normalized FL intensity,"ALP [3]; ALP 100 U/L, 14 min, mean of 3 samples",5.964
same,Normalized FL intensity,"ALP [3]; ALP 100 U/L, 14 min, single samples",5.887 and 5.948 and 6.057
same,Normalized FL intensity,"ALP [3]; ALP 100 U/L, 16 min, mean of 3 samples",6.53
same,Normalized FL intensity,"ALP [3]; ALP 100 U/L, 16 min, single samples",6.426 and 6.513 and 6.652
same,Normalized FL intensity,"ALP [3]; ALP 200 U/L, 10 min, mean of 3 samples",5.588
same,Normalized FL intensity,"ALP [3]; ALP 200 U/L, 10 min, single samples",5.343 and 5.613 and 5.8087
same,Normalized FL intensity,"ALP [3]; ALP 200 U/L, 12 min, mean of 3 samples",6.483
same,Normalized FL intensity,"ALP [3]; ALP 200 U/L, 12 min, single samples",6.217 and 6.557 and 6.674
same,Normalized FL intensity,"ALP [3]; ALP 200 U/L, 14 min, mean of 3 samples",6.862
same,Normalized FL intensity,"ALP [3]; ALP 200 U/L, 14 min, single samples",6.857 and 6.626 and 7.104
same,Normalized FL intensity,"ALP [3]; ALP 500 U/L, 10 min, mean of 3 samples",6.133
same,Normalized FL intensity,"ALP [3]; ALP 500 U/L, 10 min, single samples",5.804 and 6.287 and 6.3087
same,Normalized FL intensity,"ALP [3]; ALP 500 U/L, 12 min, mean of 3 samples",6.81
same,Normalized FL intensity,"ALP [3]; ALP 500 U/L, 12 min, single samples",6.661 and 6.722 and 7.048
same,Normalized FL intensity,"ALP [3]; ALP 500 U/L, 14 min, mean of 3 samples",7.207
same,Normalized FL intensity,"ALP [3]; ALP 500 U/L, 14 min, single samples",6.848 and 7.161 and 7.613
same,quantified FL intensity of HeLa tumors (Fig. 4c),s.c. HeLa tumors [4]; 1 h,1130000000
same,quantified FL intensity of HeLa tumors (Fig. 4c),s.c. HeLa tumors [4]; 2 h,1040000000
same,quantified FL intensity of HeLa tumors (Fig. 4c),s.c. HeLa tumors [4]; 4 h,886000000
same,tumor PA intensity at 700 nm higher than with Pt^IVNPs,s.c. HeLa tumors [5],~3.4 fold
same,tumor PA intensity at 750 nm higher than with Pt^IVNPs,s.c. HeLa tumors [5],~4.3 fold
same,quantified FL intensity of HepG2/Luc liver tumors (Fig. 5b),[6]; 2 h,9.80E+08
same,quantified FL intensity of HepG2/Luc liver tumors (Fig. 5b),[6]; 4 h,8.66E+08
same,quantified FL intensity of HepG2/Luc liver tumors (Fig. 5b),[6]; 8 h,3.61E+08
same,quantified FL intensity of HepG2/Luc liver tumors (Fig. 5b),"[6]; i.v. 100 μM, 200 μL, 1 h",1.05E+09

# Source: PMC9925730, “Controlled sequential in situ self-assembly and disassembly of a fluorogenic cisplatin prodrug for cancer theranostics” (Nature Communications, 2023)
